Patent US7998989B2, “2-Imino-1,3-thiazoline-based compounds and T-type calcium channel inhibitors containing the same” (Korea Institute of Science and Technology, priority 2007, dated 2011)

Tests used:
[1] = target: T1, α1G T-type calcium channel (Homo sapiens, UniProt O43497); test: Electrophysiological whole cell patch clamp measurement of T-type calcium channel current in HEK293 cells; type: cell-based; conditions: HEK293 cells expressing α1G; for HEK293cell (% Inhibition) 10 μM: inhibition of peak current; for IC50: read-out: IC50 (a1G)
T1 construct: host or cells: HEK293
T1 sequence (O43497 whole entry): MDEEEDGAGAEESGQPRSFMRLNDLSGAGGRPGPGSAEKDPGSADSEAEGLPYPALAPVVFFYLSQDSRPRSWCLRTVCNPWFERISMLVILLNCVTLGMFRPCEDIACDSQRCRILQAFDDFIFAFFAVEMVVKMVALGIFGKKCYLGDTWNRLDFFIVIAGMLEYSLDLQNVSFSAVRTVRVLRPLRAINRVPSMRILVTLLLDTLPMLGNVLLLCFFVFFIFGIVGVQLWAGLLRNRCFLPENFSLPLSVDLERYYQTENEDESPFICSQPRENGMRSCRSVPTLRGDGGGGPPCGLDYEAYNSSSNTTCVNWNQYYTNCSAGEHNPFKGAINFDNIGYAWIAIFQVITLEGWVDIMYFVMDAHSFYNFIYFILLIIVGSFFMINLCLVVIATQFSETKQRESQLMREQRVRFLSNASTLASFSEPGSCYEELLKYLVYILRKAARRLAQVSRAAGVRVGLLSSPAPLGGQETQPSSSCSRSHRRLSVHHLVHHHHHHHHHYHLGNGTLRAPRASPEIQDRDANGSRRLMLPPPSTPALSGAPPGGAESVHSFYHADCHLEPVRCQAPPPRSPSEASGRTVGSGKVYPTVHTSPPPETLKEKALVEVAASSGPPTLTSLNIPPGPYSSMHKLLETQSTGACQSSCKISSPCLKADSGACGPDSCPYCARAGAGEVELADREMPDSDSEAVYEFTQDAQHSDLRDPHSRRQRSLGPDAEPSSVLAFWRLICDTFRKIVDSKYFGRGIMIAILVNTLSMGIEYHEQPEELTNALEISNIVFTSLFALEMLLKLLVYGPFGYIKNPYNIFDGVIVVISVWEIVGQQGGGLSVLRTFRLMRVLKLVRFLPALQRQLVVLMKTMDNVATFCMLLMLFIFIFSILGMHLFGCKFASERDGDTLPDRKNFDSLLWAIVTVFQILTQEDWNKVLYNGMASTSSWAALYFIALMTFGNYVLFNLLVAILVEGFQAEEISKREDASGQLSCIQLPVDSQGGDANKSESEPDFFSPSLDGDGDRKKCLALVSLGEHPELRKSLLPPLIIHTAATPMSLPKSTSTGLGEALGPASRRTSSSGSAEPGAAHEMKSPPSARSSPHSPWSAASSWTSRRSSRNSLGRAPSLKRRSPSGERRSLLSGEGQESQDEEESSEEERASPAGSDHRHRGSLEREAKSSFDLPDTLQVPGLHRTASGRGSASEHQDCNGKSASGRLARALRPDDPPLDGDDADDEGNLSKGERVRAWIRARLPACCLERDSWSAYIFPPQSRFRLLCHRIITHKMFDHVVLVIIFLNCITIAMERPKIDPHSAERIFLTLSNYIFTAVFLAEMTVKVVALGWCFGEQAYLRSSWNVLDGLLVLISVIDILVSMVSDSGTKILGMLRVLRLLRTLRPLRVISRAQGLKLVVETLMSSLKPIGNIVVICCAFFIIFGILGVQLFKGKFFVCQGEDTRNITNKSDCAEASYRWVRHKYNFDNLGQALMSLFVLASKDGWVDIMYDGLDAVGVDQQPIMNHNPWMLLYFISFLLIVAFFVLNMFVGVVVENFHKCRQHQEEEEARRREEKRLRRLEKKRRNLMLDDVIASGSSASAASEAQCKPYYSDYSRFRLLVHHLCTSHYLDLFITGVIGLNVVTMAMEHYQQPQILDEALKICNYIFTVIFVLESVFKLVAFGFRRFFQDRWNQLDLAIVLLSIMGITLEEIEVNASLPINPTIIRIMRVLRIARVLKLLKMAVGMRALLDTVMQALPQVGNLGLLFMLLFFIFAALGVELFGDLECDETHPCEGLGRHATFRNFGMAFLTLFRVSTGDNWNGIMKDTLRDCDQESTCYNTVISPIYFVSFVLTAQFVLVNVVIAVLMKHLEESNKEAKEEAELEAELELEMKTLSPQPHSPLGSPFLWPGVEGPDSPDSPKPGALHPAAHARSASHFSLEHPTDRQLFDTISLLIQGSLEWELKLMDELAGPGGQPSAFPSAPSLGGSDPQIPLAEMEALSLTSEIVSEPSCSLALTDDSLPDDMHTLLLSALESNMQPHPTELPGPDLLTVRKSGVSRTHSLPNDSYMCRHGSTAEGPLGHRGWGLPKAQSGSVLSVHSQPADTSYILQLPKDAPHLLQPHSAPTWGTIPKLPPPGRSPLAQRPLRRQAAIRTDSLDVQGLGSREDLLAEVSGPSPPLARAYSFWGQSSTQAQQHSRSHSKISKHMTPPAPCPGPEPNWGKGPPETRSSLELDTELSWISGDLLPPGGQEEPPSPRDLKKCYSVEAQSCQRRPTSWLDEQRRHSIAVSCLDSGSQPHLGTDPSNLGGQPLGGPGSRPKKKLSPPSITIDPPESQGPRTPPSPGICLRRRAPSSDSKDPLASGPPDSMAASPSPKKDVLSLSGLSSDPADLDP
Procedure: In the present invention, in order to examine an efficient inhibitor against the T-type calcium channel, a primary assay for T-type calcium channel inhibiting activity was conducted by a high-efficient assay using FDSS6000, wherein mammal HEK293 cell lines (originated from human kidney carcinoma cells) that specifically express α1G of the T-type calcium channel was used for primary assay. Through the primary assay, compounds that show meaningful inhibition effects were selected. The selected compounds were used in a second assay for T-type calcium channel inhibiting activity using an electrophysiological whole cell patch clamp method, wherein mammal HEK293 cell lines (originated from human kidney carcinoma cells) that specifically express α1G of the T-type calcium channel was used for the second assay. Mibefradil, which had been developed as a T-type calcium channel inhibitor, was used as a reference.
10% Fetal bovine serum (FBS) and 1% penicillin/streptomycin (v/v) were added to Dulbecco's modified Eagle's medium (DMEM), to be used as a media solution. The cells were cultured in an incubator under a wet condition of 95% air/5% CO2 and a temperature of 36.5° C. The media solution was refreshed every 3 or 4 days, and the cells were sub-cultured every week. Only the cells that expressed α1G T-type calcium channel were cultured using a G-418 (0.5 mg/ml) solution. The recording of the cells used in the T-type calcium channel activity analysis was conducted at 2-7 days after the cells were culturing on a cover slip coated with poly-L-lysine (0.5 mg/ml) when conducting every sub-culture. For analysis at a single cell level, the T-type calcium channel current was measured by an electrophysiological whole cell patch clamp method using EPC-9 amplifier (HEKA, German).
As solutions for analyzing T-type calcium channel activity, a solution including NaCl 140 mM, CaCl2 2 mM, and HEPES10 mM (pH 7.4, Sigma; 4-(2-hydroxyethyl)piperazine-1-ethanesulfonic acid) was used as an extracellular solution, and a solution including KCl 130 mM, HEPES 10 mM (Sigma), EGTA 11 mM (ethylene glycol-bis(2-aminoethylether)-N,N,N′,N′-tetraacetic acid, Sigma), and MgATP 5 mM (pH 7.4, Sigma) was used as an intracellular solution. The protocol for T-type calcium channel activity that is activated at low voltage is as follows. A micro-glass electrode with resistance of 3-4 MΩ wherein the above-prepared intracellular solution was filled was pricked into a single cell, to make a whole-cell recording mode. Thereafter, the cell membrane potential was fixed to −100 mV, and then the inward current due to the T-type calcium channel activity when hypopolarizing to −30 mV (50 ms duration) was measured every 10 seconds.
Each compound to be tested was dissolved in 100% dimethylsulfoxide (DMSO) to make a 10 mM stock solution. The effect of the compound on the T-type calcium channel current compound was initially examined in the stock solution with the 1000-times diluted concentration of 10 μM (containing 0.1% DMSO) and then examined in the solution with the concentration for IC50 measurement (mostly 0.1 to 100 μM), to obtain an IC50 value. More specifically, the cells were treated in each compound together with the extracellular solution for 30 to 60 seconds, and the inhibition level of peak current induced by the compound was calculated as a percentage, to obtain the % inhibition value as shown in Table 4.

[2] = target: T1, α1G T-type calcium channel; test: Assay for % inhibiting activity against T-type calcium channel using FDSS6000 (fluo-3 calcium imaging, KCl activation); type: cell-based; conditions: 10 μM; HEK293 cells stably expressing α1G T-type calcium channel and Kir2.1; compounds of the examples
How it was run: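 Percent inhibition derived from […] area against untreated control (100%), after 75 s compound pre-exposure and 75 mM KCl activation. Cells: HEK293 with stable α1G plus Kir2.1, fluo-3/AM-labelled (5 μM), assayed in pH 7.4 HEPES containing 10 mM CaCl2.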

Substance	HEK293cell (% Inhibition) 10 μM [1] [%]	IC50 [1] [nM]	FDSS (% inhibition)/10uM [2] [%]
(2-cyclohexylimino-3-methyl-1,3-thiazolidine-4-yl)-N-(4-isopropylphenyl)-acetamide hydrochloride [KHG23364]	97.0 ± 0.7	870 ± 180	53
[2-(1-adamantylimino)-3-cyclopropyl-1,3-thiazolidine-4-yl]-N-(4-phenoxyphenyl)-acetamide hydrochloride [KHG24800]	95.4 ± 0.5	430 ± 70	83.5
(2-cycloheptylimino-3-methyl-1,3-thiazolidine-4-yl)-N-(4-chloro-2-fluorophenyl)-acetamide hydrochloride [KHG24130]	90.0 ± 0.9	810 ± 80	70.4
(2-cycloheptylimino-3-methyl-1,3-thiazolidine-4-yl)-N-(4-chlorobenzyl)-acetamide hydrochloride [KHG24160]	92.9 ± 0.7	1330 ± 30	61.93
(2-cyclohexylimino-3-methyl-1,3-thiazolidine-4-yl)-N-(2-trifluoromethylphenyl)-acetamide hydrochloride [KHG24083]	76.5 ± 2.3	3630 ± 540	47.92
(2-cycloheptylimino-3-methyl-1,3-thiazolidine-4-yl)-N-(4-fluorophenyl)-acetamide hydrochloride [KHG24118]	80.3 ± 1.1	1880 ± 220	66
[2-(1-adamantylimino)-3-n-propyl-1,3-thiazolidine-4-yl]-N-(4-ethylphenyl)-acetamide hydrochloride [KHG24814]	96.9 ± 1.8	300 ± 10	76.32
[2-(1-adamantylimino)-3-cyclopropyl-1,3-thiazolidine-4-yl]-N-(4-trifluoromethylphenyl)-acetamide hydrochloride [KHG24790]	94.8 ± 0.9	240 ± 10	73.05
[2-(1-adamantyl)imino-3-methyl-1,3-thiazolidine-4-yl]-N-(4-methylphenyl)-acetamide hydrochloride [KHG24235]	93.2 ± 1.9	1170 ± 80	61.65
(2-cyclohexylimino-3-methyl-1,3-thiazolidine-4-yl)-N-(4-fluorophenyl)-acetamide hydrochloride [KHG23210]	59.6 ± 1.5	6500 ± 500	46.69
[2-(1-adamantyl)imino-3-methyl-1,3-thiazolidine-4-yl]-N-(4-bromophenyl)-acetamide hydrochloride [KHG24239]	96.5 ± 1.3	610 ± 70	69.55
(2-cyclohexylimino-3-methyl-1,3-thiazolidine-4-yl)-N-(3-chloro-4-methylphenyl)-acetamide hydrochloride [KHG24072]	91.2 ± 1.6	990 ± 30	63.5
(2-cyclohexylimino-3-methyl-1,3-thiazolidine-4-yl)-N-(3-trifluoromethylphenyl)-acetamide hydrochloride [KHG24084]	82.2 ± 1.4	2790 ± 110	58.61
[2-(1-adamantyl)imino-3-methyl-1,3-thiazolidine-4-yl]-N-(4-ethylphenyl)-acetamide hydrochloride [KHG24236]	94.4 ± 0.6	230 ± 20	69.55
(2-cyclohexylimino-3-methyl-1,3-thiazolidine-4-yl)-N-(4-chlorobenzyl)-acetamide hydrochloride [KHG24113]	64.8 ± 1.4	5400 ± 410	54.13
(2-cycloheptylimino-3-methyl-1,3-thiazolidine-4-yl)-N-(4-fluorobenzyl)-acetamide hydrochloride [KHG24159]	76.8 ± 1.4	3570 ± 290	48.52
[2-(1-adamantyl)imino-3-methyl-1,3-thiazolidine-4-yl]-N-(3,5-ditrifluoromethylphenyl)-acetamide hydrochloride [KHG24241]	92.2 ± 0.5	170 ± 20	70.68
(2-cycloheptylimino-3-methyl-1,3-thiazolidine-4-yl)-N-(4-phenoxyphenyl)-acetamide hydrochloride [KHG24123]	94.2 ± 2.0	1090 ± 200	76.6
(2-cyclohexylimino-3-methyl-1,3-thiazolidine-4-yl)-N-(4-trifluoromethylphenyl)-acetamide hydrochloride [KHG24074]	94.7 ± 0.5	660 ± 60	65.2
[2-(1-adamantylimino)-3-ethyl-1,3-thiazolidine-4-yl]-N-(4-trifluoromethylphenyl)-acetamide hydrochloride [KHG24821]	92.3 ± 1.8	360 ± 20	73.69
(2-cycloheptylimino-3-methyl-1,3-thiazolidine-4-yl)-N-(4-bromophenyl)-acetamide hydrochloride [KHG24122]	94.6 ± 0.5	390 ± 30	71.12
(2-cycloheptylimino-3-methyl-1,3-thiazolidine-4-yl)-N-phenyl-acetamide hydrochloride [KHG24132]	76.8 ± 1.0	5000 ± 1970	50.94
(2-cycloheptylimino-3-methyl-1,3-thiazolidine-4-yl)-N-(4-chlorophenyl)-acetamide hydrochloride [KHG24131]	86.8 ± 0.3	520 ± 20	72.86
(2-cycloheptylimino-3-methyl-1,3-thiazolidine-4-yl)-N-(4-cyanomethylphenyl)-acetamide hydrochloride [KHG24121]	58.1 ± 4.9	8530 ± 1720	41.02
[2-(1-adamantyl)imino-3-methyl-1,3-thiazolidine-4-yl]-N-(4-phenoxyphenyl)-acetamide hydrochloride [KHG24244]	90.6 ± 3.6	920 ± 80	53.67
(2-cyclohexylimino-3-methyl-1,3-thiazolidine-4-yl)-N-(4-n-butylphenyl)-acetamide hydrochloride [KHG23365]	97.6 ± 0.5	600 ± 60	60.16
(2-cyclohexylimino-3-methyl-1,3-thiazolidine-4-yl)-N-(4-bromophenyl)-acetamide hydrochloride [KHG23354]	83.0 ± 1.4	2470 ± 180	54.26
